In patent US6274715A, “Tricyclic erythromycin derivatives” (priority 1997, dated 2001):
Converted amounts (≈) assume the structure as drawn.

What was measured:
ESCHERICHIA COLI JUHL = assay type: cell-based; conditions: E. coli JUHL; BHI agar; unit assumed
[1] = tested on: PSEUDOMONAS AERUGINOSA DPHD-5263; experiment: In vitro antibacterial activity, MIC, BHI agar dilution; assay type: cell-based; conditions: P. aeruginosa DPHD-5263, unit assumed
[2] = tested on: STREPTOCOCCUS PYOGENES 930; experiment: as above; assay type: cell-based; conditions: S. pyogenes 930, unit assumed
[3] = tested on: STAPHYLOCOCCUS AUREUS ATCC 6538P; experiment: as above; assay type: cell-based; conditions: S. aureus ATCC 6538P, 35-37° C., 20 to 24 hours, unit assumed
[4] = tested on: STAPHYLOCOCCUS AUREUS A5177; experiment: as above; assay type: cell-based; conditions: S. aureus A5177, unit assumed
Grarn-negative bacteria = conditions: background statement; cited from earlier work
EN[…] ATCC 8043 = experiment: In vitro antibacterial activity, MIC, BHI agar dilution; assay type: cell-based; conditions: E. faecium ATCC 8043, unit assumed
Outline: (§1)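 Agar dilution in BHI: plates inoculated with 1:100 dilutions of organisms (1:10 for Micrococcus and Streptococcus), incubated 20-24 h at 35-37° C, then inspected for the lowest inhibitory concentration against a drug-free growth control.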

STR[…] 508 = experiment: as above; assay type: cell-based; conditions: S. agalactiae CMX 508, unit assumed
Outline: as §1

M[…] ATCC 4698 = experiment: as above; assay type: cell-based; conditions: M. luteus ATCC 4698, unit assumed
Outline: as §1

M[…] ATCC 9341 = experiment: as above; assay type: cell-based; conditions: M. luteus ATCC 9341, unit assumed
Outline: as §1

[5] = tested on: PSEUDOMONAS AERUGINOSA BMH10; experiment: as above; assay type: cell-based; conditions: P. aeruginosa BMH10, unit assumed
[6] = tested on: STREPTOCOCCUS PYOGENES EES61; experiment: as above; assay type: cell-based; conditions: S. pyogenes EES61, unit assumed
[7] = tested on: PSEUDOMONAS AERUGINOSA K799/WT; experiment: as above; assay type: cell-based; conditions: P. aeruginosa K799/WT, unit assumed
[8] = tested on: STAPHYLOCOCCUS EPIDERMIDIS 3519; assay type: cell-based; conditions: S. epidermidis 3519; BHI agar; unit assumed
[9] = tested on: STAPHYLOCOCCUS AUREUS 1775; experiment: In vitro antibacterial activity, MIC, BHI agar dilution; assay type: cell-based; conditions: S. aureus 1775, unit assumed
CANDIDA ALBICANS CCH 442 = experiment: as above; assay type: cell-based; conditions: C. albicans CCH 442, unit assumed
[10] = tested on: PSEUDOMONAS AERUGINOSA 5007; experiment: as above; assay type: cell-based; conditions: P. aeruginosa 5007, unit assumed
[11] = tested on: STAPHYLOCOCCUS AUREUS CMX 642A; experiment: as above; assay type: cell-based; conditions: S. aureus CMX 642A, unit assumed
[12] = tested on: STAPHYLOCOCCUS AUREUS CMX 553; experiment: as above; assay type: cell-based; conditions: S. aureus CMX 553, unit assumed
ESCHERICHIA COLI DC-2 = experiment: as above; assay type: cell-based; conditions: E. coli DC-2, unit assumed
[13] = tested on: PSEUDOMONAS AERUGINOSA K799/61; experiment: as above; assay type: cell-based; conditions: P. aeruginosa K799/61, unit assumed
ESCHERICHIA COLI KNK 437 = assay type: cell-based; conditions: E. coli KNK 437; BHI agar; unit assumed
[14] = tested on: STAPHYLOCOCCUS AUREUS NCTC10649M; experiment: In vitro antibacterial activity, MIC, BHI agar dilution; assay type: cell-based; conditions: S. aureus NCTC10649M, unit assumed
[15] = tested on: MYCOBACTERIUM SMEGMATIS ATCC 114; experiment: as above; assay type: cell-based; conditions: M. smegmatis ATCC 114, unit assumed
H. Influenza Dill AMP R = experiment: In vitro antibacterial activity against H. Influenza Dill AMP R, MIC; assay type: cell-based; conditions: separate assay, unit assumed
Outline: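 Agar dilution in Brain Heart Infusion agar, twelve successive compound dilutions, inoculated by Steers replicator with 1:100 (1:10 for slow growers) culture dilutions. Incubation 35-37° C. for 20 to 24 hours; MIC is lowest concentration giving no growth, slight haze or sparse colonies versus drug-free control.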

[16] = tested on: STREPTOCOCCUS PYOGENES PIU 2548; experiment: In vitro antibacterial activity, MIC, BHI agar dilution; assay type: cell-based; conditions: S. pyogenes PIU 2548, unit assumed
[17] = tested on: STAPHYLOCOCCUS AUREUS A-5278; experiment: as above; assay type: cell-based; conditions: S. aureus A-5278, unit assumed
ESCHERICHIA COLI SS = experiment: as above; assay type: cell-based; conditions: E. coli SS, unit assumed
[18] = tested on: ENTEROBACTER AEROGENES ATCC 13048; experiment: as above; assay type: cell-based; conditions: E. aerogenes ATCC 13048, unit assumed
[19] = tested on: PSEUDOMONAS AERUGINOSA DPHD-2862; experiment: as above; assay type: cell-based; conditions: P. aeruginosa DPHD-2862, unit assumed
PSEUDOMONAS CEPACIA 296I = experiment: as above; assay type: cell-based; conditions: P. cepacia 296I, unit assumed
ESCHERICHIA COLI H560 = experiment: as above; assay type: cell-based; conditions: E. coli H560, unit assumed
[20] = tested on: STREPTOCOCCUS BOVIS A-5169; experiment: as above; assay type: cell-based; conditions: S. bovis A-5169, unit assumed
[21] = tested on: PROVIDENCIA STUARTII CMX 640; assay type: cell-based; conditions: P. stuartii CMX 640; BHI agar; unit assumed
[22] = tested on: KLEBSIELLA PNEUMONIAE ATCC 8045; experiment: In vitro antibacterial activity, MIC, BHI agar dilution; assay type: cell-based; conditions: K. pneumoniae ATCC 8045, unit assumed
[23] = tested on: ACINETOBACTER CALCOACETICUS CMX 669; experiment: as above; assay type: cell-based; conditions: A. calcoaceticus CMX 669, unit assumed

SMILES | MIC (ESCHERICHIA COLI JUHL) [µg/mL] | MIC [1] [µg/mL] | MIC [2] [µg/mL] | MIC [3] [µg/mL] | MIC [4] [µg/mL] | MIC (EN[…] ATCC 8043) [µg/mL] | MIC (STR[…] 508) [µg/mL] | MIC (M[…] ATCC 4698) [µg/mL] | MIC (M[…] ATCC 9341) [µg/mL] | MIC [5] [µg/mL] | MIC [6] [µg/mL] | MIC [7] [µg/mL] | MIC [8] [µg/mL] | MIC [9] [µg/mL] | MIC (CANDIDA ALBICANS CCH 442) [µg/mL] | MIC [10] [µg/mL] | MIC [11] [µg/mL] | MIC [12] [µg/mL] | MIC (ESCHERICHIA COLI DC-2) [µg/mL] | MIC [13] [µg/mL] | further results
CC[C@H]1OC(=O)[C@H](C)[C@@H](O[C@H]2C[C@@](C)(OC)[C@@H](O)[C@H](C)O2)[C@H](C)[C@@H](O[C@@H]2O[C@H](C)C[C@H](N(C)C)[C@H]2O)[C@](C)(O)C[C@@H](C)C(=O)[C@H](C)[C@@H](O)[C@]1(C)O [Ery A, Erythromycin A, reference compound] | 100 (≈ 136 µM) | > 100 | > 100 | 0.2 (≈ 0.273 µM) | 6.2 (≈ 8.45 µM) | 0.05 (≈ 0.0681 µM) | 0.05 (≈ 0.0681 µM) | 0.2 (≈ 0.273 µM) | 0.02 (≈ 0.0273 µM) | > 100 | 0.05 (≈ 0.0681 µM) | 50 (≈ 68.1 µM) | 0.39 (≈ 0.531 µM) | > 100 | > 100 | > 100 | 0.39 (≈ 0.531 µM) | 0.2 (≈ 0.273 µM) | > 100 | 0.78 (≈ 1.06 µM) | activity against Gram-negative bacteria (Grarn-negative bacteria): only weak activity; MIC (ESCHERICHIA COLI KNK 437): 50 µg/mL (≈ 68.1 µM); MIC [14]: 0.2 µg/mL (≈ 0.273 µM); MIC [15]: 0.02 µg/mL (≈ 0.0273 µM); MIC (H. Influenza Dill AMP R): 4 µg/mL (≈ 5.45 µM); MIC [16]: 6.2 µg/mL (≈ 8.45 µM); MIC [17]: > 100 µg/mL; MIC (ESCHERICHIA COLI SS): 0.2 µg/mL (≈ 0.273 µM); MIC [18]: 100 µg/mL (≈ 136 µM); MIC [19]: > 100 µg/mL; MIC (PSEUDOMONAS CEPACIA 296I): > 100 µg/mL; MIC (ESCHERICHIA COLI H560): 25 µg/mL (≈ 34.1 µM); MIC [20]: 0.05 µg/mL (≈ 0.0681 µM); MIC [21]: > 100 µg/mL; MIC [22]: 100 µg/mL (≈ 136 µM)
CC[C@H]1OC(=O)[C@H](C)C(=O)[C@H](C)[C@@H](O[C@@H]2O[C@H](C)C[C@H](N(C)C)[C@H]2O)[C@](C)(OC)C[C@@H](C)C2=NC3CN(S(=O)(=O)Cc4ccccc4[N+](=O)[O-])CC3N3C(=O)O[C@@]1(C)[C@H]3[C@H]2C (stereo partly drawn) [Example 123] | > 100 | > 100 | > 100 | 1.56 (≈ 1.78 µM) | 1.56 (≈ 1.78 µM) | 0.39 (≈ 0.444 µM) | 0.1 (≈ 0.114 µM) | 1.56 (≈ 1.78 µM) | 0.39 (≈ 0.444 µM) | > 100 | 0.1 (≈ 0.114 µM) | > 100 | 3.1 (≈ 3.53 µM) | > 100 | > 100 | > 100 | 3.1 (≈ 3.53 µM) | 3.1 (≈ 3.53 µM) | > 100 | 25 (≈ 28.5 µM) | MIC (ESCHERICHIA COLI KNK 437): > 100 µg/mL; MIC [14]: 3.1 µg/mL (≈ 3.53 µM); MIC [15]: 12.5 µg/mL (≈ 14.2 µM); MIC (H. Influenza Dill AMP R): 128 µg/mL (≈ 146 µM); MIC [16]: 3.1 µg/mL (≈ 3.53 µM); MIC [17]: > 100 µg/mL; MIC (ESCHERICHIA COLI SS): 6.2 µg/mL (≈ 7.06 µM); MIC [18]: > 100 µg/mL; MIC [19]: > 100 µg/mL; MIC (PSEUDOMONAS CEPACIA 296I): > 100 µg/mL; MIC (ESCHERICHIA COLI H560): > 100 µg/mL; MIC [20]: 0.1 µg/mL (≈ 0.114 µM); MIC [21]: > 100 µg/mL; MIC [23]: > 100 µg/mL; MIC [22]: > 100 µg/mL
CCC1OC(=O)C(C)C(=O)C(C)C(OC2OC(C)CC(N(C)C)C2O)C(C)(OC)CC(C)C2=NCC(CSc3ccccc3)(CN(C)C)N3C(=O)OC1(C)C3C2C (stereo not drawn) [Example 135] | > 100 | > 100 | > 100 | 1.56 (≈ 1.91 µM) | 1.56 (≈ 1.91 µM) | 0.39 (≈ 0.477 µM) | 0.2 (≈ 0.245 µM) | 1.56 (≈ 1.91 µM) | 0.2 (≈ 0.245 µM) | > 100 | 0.2 (≈ 0.245 µM) | > 100 | 3.1 (≈ 3.79 µM) | > 100 | > 100 | > 100 | 3.1 (≈ 3.79 µM) | 3.1 (≈ 3.79 µM) | > 100 | 6.2 (≈ 7.59 µM) | MIC (ESCHERICHIA COLI KNK 437): > 100 µg/mL; MIC [14]: 3.1 µg/mL (≈ 3.79 µM); MIC [15]: 1.56 µg/mL (≈ 1.91 µM); MIC (H. Influenza Dill AMP R): 64 µg/mL (≈ 78.3 µM); MIC [16]: 1.56 µg/mL (≈ 1.91 µM); MIC [17]: > 100 µg/mL; MIC (ESCHERICHIA COLI SS): 1.56 µg/mL (≈ 1.91 µM); MIC [18]: > 100 µg/mL; MIC [19]: > 100 µg/mL; MIC (PSEUDOMONAS CEPACIA 296I): > 100 µg/mL; MIC (ESCHERICHIA COLI H560): > 100 µg/mL; MIC [20]: 0.1 µg/mL (≈ 0.122 µM); MIC [21]: > 100 µg/mL; MIC [23]: > 100 µg/mL; MIC [22]: > 100 µg/mL
